From publication PMC11157767 (Molecular Cancer, 2024)

Tested on: TFG-MET allograft tumors
Assay: RNA-sequencing, differential expression and GSEA of TFG-MET allograft tumors
Assay type: in vivo, mouse
Settings: GSEA CAP vs Veh, C5 GO CC
Experimental: Error bars display standard error of mean, statistical significance was determined using t-test analysis. (****;p<0.0001, ***;p<0.001, **;p<0.01, *;p<0.05). […] Each dot represents an individual replicate. Error bars display standard error of the mean.
Each dot represents one gene.

Compound: CNC(=O)c1ccc(-c2cnc3ncc(Cc4ccc5ncccc5c4)n3n2)cc1F [Capmatinib]
- NES GOCC_U12_TYPE_SPLICEOSOMAL_COMPLEX (padj 0.00985351): -1.841
- NES GOCC_ENDOCYTIC_VESICLE_MEMBRANE (padj 0.00993117): 1.48
- NES GOCC_MAIN_AXON (padj 0.0105942): 1.71
- NES GOCC_CILIARY_TIP (padj 0.0106966): 1.78
- NES GOCC_CILIARY_BASAL_BODY (padj 0.0123456): 1.449
- NES GOCC_RNA_POLYMERASE_III_COMPLEX (padj 0.0128749): -1.798
- NES GOCC_CATION_CHANNEL_COMPLEX (padj 0.0130428): 1.45
- NES GOCC_PROTON_TRANSPORTING_TWO_SECTOR_ATPASE_COMPLEX_CATALYTIC_DOMAIN (padj 0.0138609): 1.892
- NES GOCC_SPECIFIC_GRANULE_MEMBRANE (padj 0.0141171): 1.543
- NES GOCC_SWI_SNF_SUPERFAMILY_TYPE_COMPLEX (padj 0.0141171): -1.631
- NES GOCC_U1_SNRNP (padj 0.015809): -1.765
- NES GOCC_MICROBODY (padj 0.0162979): 1.4892
- NES GOCC_CHAPERONE_COMPLEX (padj 0.0163882): -1.777
- NES GOCC_SPINDLE (padj 0.0181265): -1.395
- NES GOCC_AUTOPHAGOSOME_MEMBRANE (padj 0.0181579): 1.734
- NES GOCC_DNA_POLYMERASE_COMPLEX (padj 0.0181579): -1.786
- NES GOCC_P_BODY (padj 0.0181579): -1.619
- NES GOCC_MHC_CLASS_I_PROTEIN_COMPLEX (padj 0.0188701): 1.849
- NES GOCC_AZUROPHIL_GRANULE_MEMBRANE (padj 0.0193916): 1.659
- NES GOCC_EXOCYTIC_VESICLE (padj 0.0193916): 1.3878
- NES GOCC_EXON_EXON_JUNCTION_COMPLEX (padj 0.0194501): -1.776
- NES GOCC_SPLICEOSOMAL_TRI_SNRNP_COMPLEX (padj 0.0201459): -1.73
- NES GOCC_PLASMA_MEMBRANE_PROTEIN_COMPLEX (padj 0.0211865): 1.208
- NES GOCC_SPINDLE_POLE (padj 0.0236958): -1.485
- NES GOCC_CYTOPLASMIC_REGION (padj 0.0239917): 1.358
- NES GOCC_RIBOSOME (padj 0.0240328): -1.42
- NES GOCC_RNA_POLYMERASE_II_HOLOENZYME (padj 0.0260741): -1.585
- NES GOCC_PROTEIN_LIPID_COMPLEX (padj 0.030494): 1.7122
- NES GOCC_CENTROSOME (padj 0.0306446): -1.299
- NES GOCC_PROTEASOME_CORE_COMPLEX (padj 0.0307775): 1.722
- NES GOCC_PROTON_TRANSPORTING_V_TYPE_ATPASE_COMPLEX (padj 0.0307775): 1.755
- NES GOCC_SNARE_COMPLEX (padj 0.0312218): 1.596
- NES GOCC_BLOC_COMPLEX (padj 0.0315137): 1.832
- NES GOCC_INTRACILIARY_TRANSPORT_PARTICLE_B (padj 0.0329395): 1.825
- NES GOCC_POLYSOMAL_RIBOSOME (padj 0.0334435): -1.667
- NES GOCC_AP_TYPE_MEMBRANE_COAT_ADAPTOR_COMPLEX (padj 0.0422332): 1.673
- NES GOCC_9PLUS0_NON_MOTILE_CILIUM (padj 0.0467153): 1.3799
- NES GOCC_PROTON_TRANSPORTING_ATP_SYNTHASE_COMPLEX (padj 0.0488031): 1.779
- NES GOCC_SEX_CHROMOSOME (padj 0.0490653): -1.646
- NES GOCC_U2_SNRNP (padj 0.0543003): -1.648
- NES GOCC_ENDOCYTIC_VESICLE (padj 0.0582082): 1.305
- NES GOCC_HIGH_DENSITY_LIPOPROTEIN_PARTICLE (padj 0.0591592): 1.639
- NES GOCC_REPLISOME (padj 0.0619841): -1.586
- NES GOCC_ANCHORED_COMPONENT_OF_MEMBRANE (padj 0.0629656): 1.328
- NES GOCC_INTRINSIC_COMPONENT_OF_SYNAPTIC_VESICLE_MEMBRANE (padj 0.0629656): 1.526
- NES GOCC_MULTIVESICULAR_BODY (padj 0.063611): 1.4828
- NES GOCC_NURD_COMPLEX (padj 0.0667331): -1.604
- NES GOCC_CYTOPLASMIC_MICROTUBULE (padj 0.0742121): 1.415
- NES GOCC_PHOTORECEPTOR_CONNECTING_CILIUM (padj 0.0825356): 1.523
- NES GOCC_REGION_OF_CYTOSOL (padj 0.0834337): -1.574
- NES GOCC_FILOPODIUM_MEMBRANE (padj 0.0837675): -1.564
